Read-outs that look alike come from different tables or passages of the source. No end group written: not given here.
Assays:
[1] = system: experimental auto-immune encephalomyelitis (EAE) development in mice; test: Example 3: serum neurofilament light (NF-L) levels in EAE mice; type: in vivo, female C57BL/6 mice; conditions: Day 28 serum, vs negative control
Method: On Day 28, blood was collected from all mice into gel clot activator tubes and allowed to clot at room temperature for ˜30 minutes. Blood is then centrifuged at ˜10000 g for 5 minutes. Serum was transferred into Eppendorf tubes and stored at −80° C. until shipment to Quanterix™. Serum Neurofilament light (NF-L) protein levels were quantified using Simoa® NF-light Advantage kit as described in example 1.

[2] = system: experimental auto-immune encephalomyelitis (EAE) development in mice; conditions: Example 3; for mice died in group: 16 mice per group; for disease onset: peptide 30 μg/Alum s.c. days 4, 9, 14, 19, BG-12 100 mg/kg p.o. BID days 0 to 27; for disease onset / AUC (area under the curve) of EAE scores / MMS (mean maximal score) / end score (clinical EAE score 0-5): vs negative control
Excerpt: Example 3: Effect of the therapeutic administration of an immunogenic peptide comprising a MOG35-55 MHCII T cell epitope linked to a KCRC (SEQ ID NO: 65) or KCRPYC (SEQ ID NO: 84) oxidoreductase motif in combination with dimethyl fumarate (BG-12, […]™) on experimental auto-immune encephalomyelitis (EAE) development in mice.
The study used a total of 128 female C57BL/6 mice (Taconic Biosciences, 9 weeks old on Day 0). Mice were acclimated for 7 days prior to the first injection. Mice were assigned to groups in a balanced manner to achieve similar average weight across the groups at the start of the study.
Treatment 1 was administered once on each of the days indicated in Table 4, s.c., at a volume of 0.05 mL/site, each mouse receiving injection at two sites, for a total of 0.1 mL/mouse/dosing day. IMCY-0189 (CXXC oxidoreductase motif, IMCY-0453 (CXC oxidoreductase motif) or IMCY-0455 (CXXXC oxidoreductase motif) peptide total dose was 30 μg per administration.
(§1) BG-12 was dosed at 100 mg/kg.
(§2) All dosing were done at the same time (+/−1 hour) each dosing day. For the BID groups there were no less than 10 and no more than 14 hours between doses.
(§3) (SEQ ID NO: 266), comprising an oxidoreductase motif KCRC (SEQ ID NO: 65), a linker GW, a murine Myelin Oligodendrocyte Glycoprotein (MOG35-55) MHCII T cell epitope […] (SEQ ID NO: 169) and a flanking sequence HLYR (SEQ ID NO: 186) (Smart Bioscience) was solubilized immediately before use. Lyophilized IMCY-0453 was thawed at room temperature for 10 minutes, resuspended in Na Acetate buffer 50 mM NaCl 0.9% pH 5.4 and incubated at room temperature for 10 minutes. Reconstituted peptide was then mixed with Imject™ Alum Adjuvant before injection.
as §3, with “268),” for “266),”, “KCRPYC” for “KCRC”, “84),” for “65),”, “IMCY-0455” for “IMCY-0453”
(§4) Treatment 2 was prepared as described in example 2.
EAE induction, scoring and statistical analysis were performed as described in example
(§5) EAE development was evaluated by comparing clinical EAE readouts for all groups to the negative control (Saline/Vehicle) group.

[3] = system: experimental auto-immune encephalomyelitis (EAE) development in mice; conditions: Example 4; 16 mice per group
Excerpt: Example 4: Effect of the therapeutic administration of an immunogenic peptide comprising a human MOG201-212 MHCII T cell epitope linked to a KHCPYC oxidoreductase motif in combination with dimethyl fumarate (BG-12, […]™) on experimental auto-immune encephalomyelitis (EAE) development in mice.
The study used a total of 96 female C57BL/6 mice (Taconic Biosciences, 9 weeks old on Day 0). Mice were acclimated for 7 days prior to the first injection. Mice were assigned to groups in a balanced manner to achieve similar average weight across the groups at the start of the study.
Treatment 1 was administered once on each of the days indicated in Table 5, s.c., at a volume of 0.05 mL/site, each mouse receiving injection at two sites, for a total of 0.1 mL/mouse/dosing day. IMCY-0189 or P4 peptide total dose was 30 μg per administration.
as §1, §2
Lyophilized immunogenic peptide P4 with the sequence […] (SEQ ID NO: 176), comprising an oxidoreductase motif KHCPYC (SEQ ID NO: 77), a linker VRY, a human Myelin Oligodendrocyte Glycoprotein (MOG201-212) MHCII T cell epitope […] (SEQ ID NO: 165) and a flanking sequence TLFKK (SEQ ID NO: 267) (Smart Bioscience) was solubilized immediately before use. Lyophilized P4 was thawed at room temperature for 10 minutes, resuspended in Na Acetate buffer 50 mM NaCl 0.9% pH 5.4 and incubated at room temperature for 10 minutes. Reconstituted peptide was then mixed with Imject™ Alum Adjuvant before injection.
as §4
EAE induction, scoring and statistical analysis were performed as described in example 2.
as §5

[4] = system: experimental auto-immune encephalomyelitis (EAE) development in mice; conditions: Example 2, 16 mice per group
Excerpt: Example 2: Effect of the therapeutic administration of an immunogenic peptide comprising a MOG35-55 MHCII T cell epitope linked or not to an HCPYC oxidoreductase motif in combination with dimethyl fumarate (BG-12, […]™) on experimental auto-immune encephalomyelitis (EAE) development in mice.
The study used a total of 96 female C57BL/6 mice (Taconic Biosciences, 10 weeks old on Day 0). Mice were acclimated for 14 days prior to the first injection. Mice were assigned to groups in a balanced manner to achieve similar average weight across the groups at the start of the study.
Treatment 1 was administered once on each of the days indicated in Table 3, s.c., at a volume of 0.05 mL/site, each mouse receiving injection at two sites, for a total of 0.1 mL/mouse/dosing day. IMCY-0189 or MOG35-55 peptide total dose was 30 μg per administration.
as §1, §2
Lyophilized mouse MOG35-55 peptide with the sequence […] (SEQ ID NO:205), comprising the mouse Myelin Oligodendrocyte Glycoprotein (MOG35-55) MHCII T cell epitope […] (SEQ ID NO:169), was solubilized immediately before use. Lyophilized MOG35-55 peptide was thawed at room temperature for 10 minutes, resuspended in Na Acetate buffer 50 mM NaCl 0.9% pH 5.4 and incubated at room temperature for 10 minutes. Reconstituted MOG35-55 peptide was then mixed with Imject™ Alum Adjuvant before injection. Note that the positions 35 to 55 refer to the mature protein, i.e. after cleavage of the signal peptide (AA 1-29), defined by SEQ ID NO: 208. In the full-length amino acid sequence of MOG (SEQ ID NO: 184), said peptide would be at positions 64-84.
Lyophilized IMCY-0189 was thawed at room temperature for 10 minutes, resuspended in Na Acetate buffer 50 mM NaCl 0.9% pH 5.4 and incubated at room temperature for 10 minutes. Reconstituted peptide was then mixed with Imject™ Alum Adjuvant before injection.
For Treatment 2, vehicle was 0.5% HPMC, 0.2% Tween 20, and 50 mM citrate buffer at pH 4. BG-12 (Santa Cruz Biotechnology, sc-239774) and was prepared at least every 2 weeks. At each preparation the required amount of BG-12 was weighed out into a mortar and triturated with a pestle. Vehicle was then added in small increments and mixed until the final volume was reached. The material was then vortexed and sonicated in a water bath until a homogeneous suspension was obtained. Formulated BG-12 was stored at 4° C., stirring continuously.
EAE induction, scoring and statistical analysis were performed as described in example 1.
as §5

Compound | serum NF-L levels [1] | mice died in group [2] [mice] | disease onset [2] | AUC (area under the curve) of EAE scores [2] | MMS (mean maximal score) [2] | end score (clinical EAE score 0-5) [2] | mice died in group [3] | mice died in group [4] | mice died in group ([4]; listed as MOG35-55/Vehicle) [mice]
KCRCGWYRSPFSRVVHLYR [IMCY-0453] | statistically significant reduced NF-L levels | 1 | statistically significantly improved | statistically significantly improved | statistically significantly improved | statistically significantly improved |  |  | 
CC[C@H](C)[C@H](NC(=O)[C@H](CCCCN)NC(=O)[C@H](Cc1c[nH]c2ccccc12)NC(=O)[C@H](CO)NC(=O)[C@@H]1CCCN1C(=O)[C@@H](NC(=O)[C@H](CCCNC(=N)N)NC(=O)[C@H](CC(C)C)NC(=O)[C@H](Cc1ccccc1)NC(=O)[C@H](Cc1ccc(O)cc1)NC(=O)[C@H](CCCNC(=N)N)NC(=O)[C@@H](NC(=O)[C@H](CS)NC(=O)[C@H](Cc1ccc(O)cc1)NC(=O)[C@@H]1CCCN1C(=O)[C@H](CS)NC(=O)[C@H](Cc1c[nH]cn1)NC(=O)[C@@H](N)CCCCN)C(C)C)C(C)C)C(=O)N[C@H](C(=O)N[C@@H](CC(C)C)C(=O)N[C@@H](Cc1ccccc1)C(=O)N[C@@H](CCCCN)C(=O)N[C@@H](CCCCN)C(=O)O)[C@@H](C)O [P4] |  |  |  |  |  |  | No mice died |  | 
MEVGWYRSPFSRVVHLYRNGK [MOG35-55 peptide] |  |  |  |  |  |  |  | No mice died | 2
KCRPYCGWYRSPFSRVVHLYR [IMCY-0455] | statistically significant reduced NF-L levels | 1 | statistically significantly improved | statistically significantly improved | statistically significantly improved | statistically significantly improved |  |  | 
